Experiment [1] deals with T1, wild-type human OAT1 (HsOAT1) (Homo sapiens, UniProt Q4U2R8).
T1 sequence (Q4U2R8 1-563): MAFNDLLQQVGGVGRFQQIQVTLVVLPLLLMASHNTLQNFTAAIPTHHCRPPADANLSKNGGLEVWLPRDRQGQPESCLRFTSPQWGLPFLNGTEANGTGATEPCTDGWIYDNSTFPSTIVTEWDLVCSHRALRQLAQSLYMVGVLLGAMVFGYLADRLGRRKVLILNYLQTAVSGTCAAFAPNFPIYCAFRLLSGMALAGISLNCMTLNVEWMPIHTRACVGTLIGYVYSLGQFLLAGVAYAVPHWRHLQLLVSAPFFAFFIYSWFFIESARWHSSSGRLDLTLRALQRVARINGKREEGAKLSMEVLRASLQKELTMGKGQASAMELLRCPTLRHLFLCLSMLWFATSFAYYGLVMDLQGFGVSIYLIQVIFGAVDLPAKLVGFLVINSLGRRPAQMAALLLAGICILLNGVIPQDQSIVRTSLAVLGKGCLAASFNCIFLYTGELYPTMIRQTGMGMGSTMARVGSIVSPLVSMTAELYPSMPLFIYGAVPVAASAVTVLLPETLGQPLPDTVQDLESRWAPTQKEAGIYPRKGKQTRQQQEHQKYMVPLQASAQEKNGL
Kind of experiment: Cell-based 6-CF transport assay, wild-type HsOAT1 in HeLa cells. The settings on record: for 6-CF transport in presence of dicarboxylate, single experiments: dicarboxylate 0.5 mM, 8 minutes, n = 8; for effect on OAT1 transport: 10 mM sodium phosphate; for 6-CF uptake, MEAN: WT (+P), 0.1 mM pemetrexed.
Description: To assay HsOAT1 transporter activity the model substrate 6-carboxyfluorescein (6-CF)[46],[47]
For transport assays, 1 × 10^5 cells per well were seeded into 24-well plates and 24 h later transfected using FUGENE HD (Promega E2311) Transfection Reagent (0.4 μg DNA per 1 μl of FUGENE per well) with HsOAT1 constructs containing a C-terminal FLAG tag in the vector pCDNA3.1 for 36 h. Expression of each mutant of HsOAT1 was assessed through western blotting on membrane fractions using an anti-FLAG antibody 1:3,000 dilution (Merck F1804), using a loading control of anti-β-actin 1:5,000 dilution (Merck A2228) (Extended Data Fig. 4). […] Background fluorescence was subtracted from cells transfected with the empty plasmid, and the data were normalized to 100%. To assess the activity of HsOAT1 in the presence and absence of chloride, the buffer was 120 mM NaCl, 28 mM glucose and 25 mM HEPES, pH 7.2 or for chloride-free conditions, and 120 mM sodium gluconate was used. […] To study the effect of ligands or inhibitors, the compound of interest was added to the assay buffer at the desired concentration. […] Each concentration was repeated three times to calculate standard errors, and the whole experiment was repeated three times to calculate the mean IC50 and standard error.

The target of experiment [2] is T2, HsOAT1 truncation (lacks last 10 amino acids) (Homo sapiens, UniProt Q4U2R8).
T2 construct: expressed in transfected cells; host or cells: HeLa
T2 sequence (Q4U2R8 1-552 limits assumed): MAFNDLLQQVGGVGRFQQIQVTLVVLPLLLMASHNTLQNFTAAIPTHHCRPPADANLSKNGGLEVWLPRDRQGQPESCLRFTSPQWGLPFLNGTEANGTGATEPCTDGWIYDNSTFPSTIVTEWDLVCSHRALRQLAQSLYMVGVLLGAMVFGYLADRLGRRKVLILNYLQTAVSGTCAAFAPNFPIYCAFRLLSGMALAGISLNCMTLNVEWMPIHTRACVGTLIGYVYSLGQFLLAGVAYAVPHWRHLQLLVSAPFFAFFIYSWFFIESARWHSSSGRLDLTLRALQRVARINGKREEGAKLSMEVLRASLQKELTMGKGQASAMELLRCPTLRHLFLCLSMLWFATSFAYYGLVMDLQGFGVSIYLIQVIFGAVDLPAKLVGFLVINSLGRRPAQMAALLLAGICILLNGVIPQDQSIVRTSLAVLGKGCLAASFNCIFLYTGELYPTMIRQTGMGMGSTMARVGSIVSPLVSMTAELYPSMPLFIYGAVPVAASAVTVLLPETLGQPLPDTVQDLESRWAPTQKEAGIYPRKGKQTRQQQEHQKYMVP
Kind of experiment: Cell-based 6-CF transport assay, truncated HsOAT1 lacking the last 10 amino acids. Conditions: Truncation (+P), 0.1 mM pemetrexed.

A further experiment deals with T3, RnOat1 (Rattus norvegicus, UniProt O35956).
T3 construct: made in house; host or cells: Sf9 insect cells (baculovirus)
T3 sequence (O35956 1-551): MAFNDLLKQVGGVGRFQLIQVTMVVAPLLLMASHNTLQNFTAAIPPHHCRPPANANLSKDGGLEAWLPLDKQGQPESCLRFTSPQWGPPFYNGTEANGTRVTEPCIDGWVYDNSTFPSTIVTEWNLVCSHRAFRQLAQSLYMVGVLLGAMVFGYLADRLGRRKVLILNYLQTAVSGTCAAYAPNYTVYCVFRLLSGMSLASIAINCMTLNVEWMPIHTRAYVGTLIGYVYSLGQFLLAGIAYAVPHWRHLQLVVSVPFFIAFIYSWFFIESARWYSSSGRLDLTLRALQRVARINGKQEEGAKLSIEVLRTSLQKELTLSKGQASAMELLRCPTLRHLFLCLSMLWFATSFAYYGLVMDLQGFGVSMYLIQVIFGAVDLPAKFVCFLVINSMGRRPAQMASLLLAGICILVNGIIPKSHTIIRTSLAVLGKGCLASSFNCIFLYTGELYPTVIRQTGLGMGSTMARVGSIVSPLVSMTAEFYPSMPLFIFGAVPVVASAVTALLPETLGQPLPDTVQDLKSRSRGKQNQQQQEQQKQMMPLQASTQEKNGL
Description: Sybody binding by biolayer interferometry. Also on record: unit not given here. As for the experimental part:
Sybody selection was performed against C-terminally Avi-Flag-tagged and biotinylated RnOat1 using methods described previously in ref. [48]. A high-affinity sybody with a slow off rate, as measured using biolayer interferometry (Octet Red 384), was identified from the concave library. The sybody was cloned and expressed as a C-terminally MycHis tagged construct from the pSB-init vector (Addgene no. 110100), (pSB_Syb25 Addgene no. 197992).
On the technique in general: In BLI a coated tip is dipped into the sample, and binding shifts an interference pattern.

Experiment [3] concerns the target T4, Biotinylated RnOat1 with a C-terminal Avi-tag followed by a FLAG tag (Rattus norvegicus, UniProt O35956, biotin (on the Avi-tag, by GST-BirA)).
T4 construct: Organic anion transporter 1 (Oat1, Slc22a6) of Rattus norvegicus; Used for the sybody selection; The host is likely Sf9 as for the structural construct (surmise); also called C-terminally Avi-Flag-tagged and biotinylated RnOat1; not shown: Avi-tag, C-terminal, kept
Description: BLI; Octet Red 384; who was immobilised and the buffer are not told; n = 4 independent experiments. The settings on record: both partners purified.

The values below come from PMC10643130, “Molecular basis for selective uptake and elimination of organic anions in the kidney by OAT1” (Nature Structural & Molecular Biology, 2023).

Values joined by “and” are separate entries in the source; they are usually repeats but may differ in a detail not shown here. Identical values can stand only once.

As usually defined, the Kd is the free concentration of one partner at which half of the binding sites on the other are occupied at equilibrium, for simple one-to-one binding.

As for `O=C(O)CCCCCC(=O)O` [pimelate], in experiment [1], the “6-CF transport in presence of dicarboxylate, single experiments” value is 18.1607% and 12.7635% and 14.6181% and 17.3198% and 16.4606% and 11.6692%.

On to `O=C(O)CCC(=O)O` [succinate], for which, in experiment [1], the “6-CF transport in presence of dicarboxylate, single experiments” value was 62.6553% and 71.4816% and 66.0745% and 69.225% and 69.843% and 74.8162% and 55.8733% and 76.8934%.

For `O=P(O)(O)O` [phosphate, sodium phosphate], the “effect on OAT1 transport” value is listed as “no impact” in experiment [1] and “no effect” in experiment [1] (listed as sodium phosphate).

As for `Nc1nc2[nH]cc(CCc3ccc(C(=O)N[C@@H](CCC(=O)O)C(=O)O)cc3)c2c(=O)[nH]1` [pemetrexed], the “6-CF uptake, MEAN” value is listed as 19.52 in experiment [2] (1 min); 17.65 in experiment [2] (5 min); 16.52 in experiment [2] (8 min); 12.32 in experiment [2] (10 min); 22 in experiment [1] (1 min); 18.75 in experiment [1] (5 min). Also, the results for the “6-CF uptake, MEAN” value in experiment [1] (8 min) and in experiment [1] (10 min) were 24.75 and 17.25, respectively. Besides, the “inhibition of 6-CF uptake” value in experiment [1] (0.1 mM in assay buffer) is listed as “fully inhibited”. Moreover, in experiment [1] (0.5 mM, uptake after 8 minutes, similar to literature ref 20), the “substrate quality in 6-CF assay” value is “poor substrates”. The “6-CF uptake in presence of substrate, single experiments” value in experiment [1] (substrate 0.5 mM, uptake after 8 minutes) came to 71%.

B1: Sybody (synthetic nanobody) against RnOat1, Syb25 (VHH)
VHH: QVQLVESGGGLVQAGGSLRLSCAASGFPVKTEWMEWYRQAPGKEREWVAAIWSYGSGTRYADSVKGRFTISRDNAKNTVYLQMNSLKPEDTAVYYCLVRVGSWYHGQGTQVTVSA
notes: selected from the concave sybody library; source: expressed from the pSB-init vector
On to B1, for which the “binding response (ED Fig 3e source data)” value was determined as 0.004 with RnOat1 (Conc. 7.81 nM); 0.0165 with RnOat1 (Conc. 15.625 nM); 0.04633 in the experiment with RnOat1 (Conc. 31.25 nM); 0.1353 with RnOat1 (Conc. 62.5 nM); 0.201 with RnOat1 (Conc. 250 nM); 0.2162 in the experiment with RnOat1 (Conc. 500 nM). In addition, the entries for the “binding response (ED Fig 3e source data)” value in the experiment with RnOat1 (Conc. 1000 nM) and with RnOat1 (Conc. 2000 nM) were 0.2225 and 0.23, respectively. For the same molecule, the affinity in experiment [3], expressed as Kd, was 75 nM.
